# Results taken from US20230286934A1, “Use of Multi-Kinase Inhibitors to Treat RNA Virus Infections” (priority 2020, published 2023).
# Like-named read-outs stand apart in the source and are kept apart here.
# Columns and labels:
# [1] = tested on: SARS-CoV-2; test: microbe, parasite or virus in culture; assay type: cell-based; settings: for IC50: read-out: IC50 of inhibition of the replication of SARS-CoV-2
# [2] = tested on: SARS-CoV2 WA-2020 strain; assay type: cell-based; settings: Vero E6, 40,000 cells/well, MOI 0.01, 72 hours
# [3] = tested on: SARS-CoV2 WA-2020 strain; assay type: cell-based; settings: Vero E6, 2000 cells/well, MOI 0.05, 72 hours
# [4] = tested on: Vero E6 cells; settings: MTT assay, uninfected Vero E6 cells, same compound dilutions
# [5] = tested on: SARS-CoV2 WA-2020 strain; assay type: cell-based; settings: Vero E6, 40,000 cells/well, MOI 0.01, 72 hours supernatant
# [6] = Severe acute respiratory syndrome coronavirus 2, Vero C1008, 48 h
structure (smiles),measurement,setting,value
CN1CCN(c2ccc(Nc3ncc4cc(C#N)c(=O)n(C5CCCC5)c4n3)cc2)CC1 [ON123300],effect on viral replication,"[1]; Vero E6 cells, negative control, data not shown",no effect on viral replication
CCN(CCO)CCCC(C)Nc1ccnc2cc(Cl)ccc12 (stereo not drawn) [Hydroxy-Chloroquine],IC50,[1]; [6],0.733 µM
O=C1Nc2cc(S(=O)(=O)Cc3c(Cl)cccc3Cl)ccc2S/C1=C\c1ccc(O)c([N+](=O)[O-])c1 [compound 108600],IC50,"[1]; Vero E6 cells, 2,000 cells/well, MOI 0.025, 48 h, percent infected cells (NP immunostain)",0.013 µM
same,"fold more effective/active than Remdesivir (IC50, SARS-CoV-2 replication)","[1]; Vero E6 cells, relative to Remdesivir",approximately 63 fold
same,release of NP protein from infected cells into the medium,[2],inhibition was noted only with 10 µM concentration
same,release of NP protein / virus from infected cells,[3],inhibited SARS-CoV-2 infection of Vero cells in a dose dependent manner
same,effect on the viability of Vero E6 cells,[4],little or no effect
same,infectious titer of released virus (plaque assay),[5],correlated to the infectious titers
CCC(CC)COC(=O)[C@H](C)N[P@](=O)(OC[C@H]1O[C@@](C#N)(c2ccc3c(N)ncnn23)[C@H](O)[C@@H]1O)Oc1ccccc1 [Remdesivir],IC50,[1]; [6],0.826 µM
